This is an account of results in patent US20100183629A1, “ANTAGONISTS OF ENDOTHELIAL DIFFERENTIATION GENE SUBFAMILY 3 (EDG-3, S1P3) RECEPTORS FOR PREVENTION AND TREATMENT OF OCULAR DISORDERS” (ALCON RESEARCH, LTD., priority 2006, published 2010).

The assay has as its target T1, Edg3 receptor (Homo sapiens, UniProt Q99500).
T1 construct: endogenous in cells; host or cells: cultured human trabecular meshwork (TM) cells
Nature of the assay: PAI-1 levels (ELISA) in supernatants of treated human TM cell cultures, Edg3 receptor antagonism. It counts as cell-based. The following applies: human trabecular meshwork cell cultures, 24 hours. The procedure: FIG. 2A and FIG. 2B. Human trabecular meshwork cell cultures were treated with (open circles) or without (closed circles) the Edg3 receptor subtype antagonist CAY10444 in the presence of various amounts of the endogenous Edg receptor agonist S1P (FIG. 2A) or in the presence of various amounts of FTY720, a structural analog of SIP (FIG. 2B). Twenty-four hours later, the levels of the secreted PAI-1 protein were then determined by ELISA of supernatant aliquots from the treated cultures as cited in Example 2.
The effect of Edg3 receptor antagonism on expression of extracellular matrix-related proteins by cultured human trabecular meshwork cells is determined as follows. […] Levels of extracellular matrix-related proteins, such as fibronectin, plasminogen activator inhibitor I (PAI-1), collagens, fibrillin, vitronectin, laminin, thrombospondin I, proteoglycans, or integrins, are then measured in each cell culture group via standard enzyme-linked immunoabsorbent assays (ELISA). […]
An example of the effect of Edg3 receptor antagonism on PAI-1 levels in supernatants from treated human TM cell cultures is shown in FIG. 2A and FIG. 2B. […] Twenty-four hours later, the levels of the secreted PAI-1 protein were then determined by ELISA of supernatant aliquots from the treated cultures.
(In general: An ELISA detects its analyte on a solid surface through an enzyme-linked reagent.)

Each structure is given as a SMILES string.

T1 sequence (Q99500 whole entry): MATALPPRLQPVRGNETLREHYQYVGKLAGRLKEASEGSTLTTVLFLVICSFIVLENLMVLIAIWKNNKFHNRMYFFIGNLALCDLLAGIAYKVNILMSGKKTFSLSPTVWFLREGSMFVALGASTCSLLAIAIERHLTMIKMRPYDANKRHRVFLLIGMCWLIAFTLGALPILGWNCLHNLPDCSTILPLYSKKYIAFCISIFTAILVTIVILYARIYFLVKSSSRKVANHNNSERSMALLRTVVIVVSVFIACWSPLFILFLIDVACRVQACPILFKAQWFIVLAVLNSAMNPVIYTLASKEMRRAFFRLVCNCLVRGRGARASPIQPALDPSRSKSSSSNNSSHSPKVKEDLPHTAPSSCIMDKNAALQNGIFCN

In the case of `CCCCCCCCCCCC1N[C@H](C(=O)O)CS1` (some centres unmarked) [CAY10444], the “antagonism of FTY720 effect on secreted PAI-1 protein level” value (various amounts of FTY720, ELISA of supernatant (FIG. 2B)) was “potently and efficaciously antagonized”. The “antagonism of S1P effect on secreted PAI-1 protein level” value (various amounts of S1P, ELISA of supernatant (FIG. 2A)) is “potently and efficaciously antagonized”.
